# Data taken from patent publication US20070128217A1 (priority 2003, published 2007).
# Experiments:
# [1] = test system: antibodies in sera from SARS patients (sera 1a, 1b, 2, 6, 37, 62, London, SARS-yellow, SARS-green); format: binding, human; set-up: Binding of serum 6 to linear peptides of protein X1 of SARS-CoV Urbani / Binding of serum 37 to linear peptides of protein X1 of SARS-CoV Urbani / Binding of serum 6 to looped/cyclic peptide (PEPSCAN-ELISA) / Binding of serum 37 to looped/cyclic peptide (PEPSCAN-ELISA) / Binding of serum 37 to looped/cyclic peptides of protein X1 of SARS-CoV Urbani / Binding of serum 6 to linear peptides of protein X2 / Binding of serum 37 to linear peptides of protein X2 / Binding of serum 37 to looped/cyclic peptides of protein X2 of SARS-CoV Urbani / Binding of serum 6 to linear peptides of protein M of SARS-CoV Urbani / Binding of serum 37 to linear peptides of protein M of SARS-CoV Urbani / Binding of serum 6 to looped/cyclic peptides of protein M of SARS-CoV Urbani / Binding of serum 37 to looped/cyclic peptides of protein M of SARS-CoV Urbani / Binding of serum 6 to linear peptides of protein X3 of SARS-CoV Urbani / Binding of serum 37 to linear peptides of protein X3 of SARS-CoV Urbani / Binding of serum 37 to looped/cyclic peptides of protein X3 of SARS-CoV Urbani / Binding of serum 6 to linear peptides of protein X4 of SARS-CoV Urbani / Binding of serum 37 to linear peptides of protein X4 of SARS-CoV Urbani / Binding of serum 37 to looped/cyclic peptides of protein X4 of SARS-CoV Urbani / Binding of serum 6 to linear peptides of protein X5 of SARS-CoV Urbani / Binding of serum 37 to linear peptides of protein X5 of SARS-CoV Urbani / Binding of serum 37 to looped/cyclic peptides of protein X5 of SARS-CoV Urbani / Binding of serum 6 to linear peptides of protein N of SARS-CoV Urbani / Binding of serum 37 to linear peptides of protein N of SARS-CoV Urbani / Binding of serum 6 to linear peptide (PEPSCAN-ELISA) / Binding of serum 1a to looped/cyclic peptides of protein N of SARS-CoV Urbani / Binding of serum 1b to looped/cyclic peptides of protein N of SARS-CoV Urbani / Binding of serum 2 to looped/cyclic peptides of protein N of SARS-CoV Urbani / Binding of serum 6 to looped/cyclic peptides of protein N of SARS-CoV Urbani / Binding of serum 37 to looped/cyclic peptides of protein N of SARS-CoV Urbani / Binding of serum 62 to looped/cyclic peptides of protein N of SARS-CoV Urbani / Binding of serum London to looped/cyclic peptides of protein N of SARS-CoV Urbani / Binding of serum SARS-green to looped/cyclic peptides of protein N of SARS-CoV Urbani: unit not given here
# [2] = test system: control sera (pooled serum of ten healthy LUMC hospital workers; commercial negative donor pooled serum from the Dutch bloodbank); format: binding, human; set-up: Binding of Control serum LUMC to linear peptides / Binding of Control serum Blood-bank to linear peptides / Binding of Control serum LUMC to looped peptides / Binding of Control Serum Blood-Bank to Looped peptides / Binding of Control serum LUMC to linear peptides of the protein M of SARS-CoV Urbani / Binding of Control serum Blood-bank to linear peptides of the protein M of SARS-CoV Urbani / Binding of Control serum LUMC to looped peptides of the protein M of SARS-CoV Urbani / Binding of Control Serum Blood-Bank to Looped peptides of the protein M of SARS-CoV Urbani: unit not given here
# [3] = test system: rabbit serum obtained by immunizing a rabbit with the SARS-CoV strain Frankfurt 1; format: binding; set-up: Binding of a rabbit serum to linear peptides / Binding of a rabbit serum to looped peptides / Rabbit serum linear peptides / Rabbit serum looped peptides / Binding of a rabbit serum to linear peptides of protein N of SARS-CoV Urbani (Rabbit serum linear peptides) / Binding of a rabbit serum to looped/cyclic peptides of protein N of SARS-CoV Urbani (Rabbit serum looped peptides): unit not given here
sequence,measurement,setting,value
QTAAFRDVLVVLNKR,Binding of serum 1a to linear peptides of protein X5 of SARS-CoV Urbani,[1],0.5
same,Binding of serum 1a to looped/cyclic peptides of protein X5 of SARS-CoV Urbani,[1],0.6
same,Binding of serum 1b to linear peptides of protein X5 of SARS-CoV Urbani,[1],0.5
same,Binding of serum 1b to looped/cyclic peptides of protein X5 of SARS-CoV Urbani,[1],0.5
same,Binding of serum 2 to linear peptides of protein X5 of SARS-CoV Urbani,[1],0.6
same,Binding of serum 2 to looped/cyclic peptides of protein X5 of SARS-CoV Urbani,[1],0.6
same,Binding of serum 6 to linear peptides of protein X5 of SARS-CoV Urbani,[1],0.6
same,Binding of serum 6 to looped/cyclic peptides of protein X5 of SARS-CoV Urbani,[1],0.8
same,Binding of serum 37 to linear peptides of protein X5 of SARS-CoV Urbani,[1],0.5
same,Binding of serum 37 to looped/cyclic peptides of protein X5 of SARS-CoV Urbani,[1],0.6
same,Binding of serum 62 to linear peptides of protein X5 of SARS-CoV Urbani,[1],0.4
same,Binding of serum 62 to looped/cyclic peptides of protein X5 of SARS-CoV Urbani,[1],0.6
same,Binding of serum London to linear peptides of protein X5 of SARS-CoV Urbani,[1],0.5
same,Binding of serum London to looped/cyclic peptides of protein X5 of SARS-CoV Urbani,[1],0.5
same,Binding of serum SARS-green to linear peptides of protein X5 of SARS-CoV Urbani,[1],0.2
same,Binding of serum SARS-green to looped/cyclic peptides of protein X5 of SARS-CoV Urbani,[1],0.3
same,Binding of serum SARS-yellow to linear peptides of protein X5 of SARS-CoV Urbani,[1],0.6
same,Binding of serum SARS-yellow to looped/cyclic peptides of protein X5 of SARS-CoV Urbani,[1],0.4
same,Binding of Control Serum Blood-Bank to Looped peptides,[2],0.7
same,Binding of Control serum Blood-bank to linear peptides,[2],0.6
same,Binding of Control serum LUMC to linear peptides,[2],0.8
same,Binding of Control serum LUMC to looped peptides,[2],0.5
same,Rabbit serum linear peptides,[3],0.4
same,Rabbit serum looped peptides,[3],0.5
QTCTPNVTINCQDPA,Binding of serum 1a to linear peptides of protein X5 of SARS-CoV Urbani,[1],0.8
same,Binding of serum 1a to looped/cyclic peptides of protein X5 of SARS-CoV Urbani,[1],0.4
same,Binding of serum 1b to linear peptides of protein X5 of SARS-CoV Urbani,[1],0.7
same,Binding of serum 1b to looped/cyclic peptides of protein X5 of SARS-CoV Urbani,[1],0.1
same,Binding of serum 2 to linear peptides of protein X5 of SARS-CoV Urbani,[1],0.6
same,Binding of serum 2 to looped/cyclic peptides of protein X5 of SARS-CoV Urbani,[1],0.3
same,Binding of serum 6 to linear peptides of protein X5 of SARS-CoV Urbani,[1],0.8
same,Binding of serum 6 to looped/cyclic peptides of protein X5 of SARS-CoV Urbani,[1],0.2
same,Binding of serum 37 to linear peptides of protein X5 of SARS-CoV Urbani,[1],0.8
same,Binding of serum 37 to looped/cyclic peptides of protein X5 of SARS-CoV Urbani,[1],0.3
same,Binding of serum 62 to linear peptides of protein X5 of SARS-CoV Urbani,[1],0.8
same,Binding of serum 62 to looped/cyclic peptides of protein X5 of SARS-CoV Urbani,[1],0.2
same,Binding of serum London to linear peptides of protein X5 of SARS-CoV Urbani,[1],0.9
same,Binding of serum London to looped/cyclic peptides of protein X5 of SARS-CoV Urbani,[1],0.1
same,Binding of serum SARS-green to linear peptides of protein X5 of SARS-CoV Urbani,[1],0.8
same,Binding of serum SARS-green to looped/cyclic peptides of protein X5 of SARS-CoV Urbani,[1],0.0
same,Binding of serum SARS-yellow to linear peptides of protein X5 of SARS-CoV Urbani,[1],0.1
same,Binding of serum SARS-yellow to looped/cyclic peptides of protein X5 of SARS-CoV Urbani,[1],0.1
same,Binding of Control Serum Blood-Bank to Looped peptides,[2],0.4
same,Binding of Control serum Blood-bank to linear peptides,[2],0.6
same,Binding of Control serum LUMC to linear peptides,[2],0.4
same,Binding of Control serum LUMC to looped peptides,[2],0.3
same,Rabbit serum linear peptides,[3],0.3
same,Rabbit serum looped peptides,[3],0.0
QWIQFMMSRRRLLAC,Binding of serum 1a to linear peptides of protein X2,[1],0.7
same,Binding of serum 1a to looped/cyclic peptides of protein X2 of SARS-CoV Urbani,[1],0.5
same,Binding of serum 1b to linear peptides of protein X2,[1],0.5
same,Binding of serum 1b to looped/cyclic peptides of protein X2 of SARS-CoV Urbani,[1],0.4
same,Binding of serum 2 to linear peptides of protein X2,[1],0.5
same,Binding of serum 2 to looped/cyclic peptides of protein X2 of SARS-CoV Urbani,[1],0.3
same,Binding of serum 6 to linear peptides of protein X2,[1],0.7
same,Binding of serum 6 to looped/cyclic peptides of protein X2 of SARS-CoV Urbani,[1],0.3
same,Binding of serum 37 to linear peptides of protein X2,[1],0.6
same,Binding of serum 37 to looped/cyclic peptides of protein X2 of SARS-CoV Urbani,[1],0.5
same,Binding of serum 62 to linear peptides of protein X2,[1],0.6
same,Binding of serum 62 to looped/cyclic peptides of protein X2 of SARS-CoV Urbani,[1],0.5
same,Binding of serum London to linear peptides of protein X2,[1],0.5
same,Binding of serum London to looped/cyclic peptides of protein X2 of SARS-CoV Urbani,[1],0.2
same,Binding of serum SARS-green to linear peptides of protein X2,[1],0.5
same,Binding of serum SARS-green to looped/cyclic peptides of protein X2 of SARS-CoV Urbani,[1],0.4
same,Binding of serum SARS-yellow to linear peptides of protein X2,[1],0.6
same,Binding of serum SARS-yellow to looped/cyclic peptides of protein X2 of SARS-CoV Urbani,[1],0.4
same,Binding of Control Serum Blood-Bank to Looped peptides,[2],0.3
same,Binding of Control serum Blood-bank to linear peptides,[2],0.8
same,Binding of Control serum LUMC to linear peptides,[2],0.5
same,Binding of Control serum LUMC to looped peptides,[2],0.4
same,Binding of a rabbit serum to linear peptides,[3],1.0
same,Binding of a rabbit serum to looped peptides,[3],2.0
QWNLVIGFLFLAWIM,Binding of serum 1a to linear peptides of protein M of SARS-CoV Urbani,[1],0.7
same,Binding of serum 1a to looped/cyclic peptides of protein M of SARS-CoV Urbani,[1],0.7
same,Binding of serum 1b to linear peptides of protein M of SARS-CoV Urbani,[1],0.4
same,Binding of serum 1b to looped/cyclic peptides of protein M of SARS-CoV Urbani,[1],0.6
same,Binding of serum 2 to linear peptides of protein M of SARS-CoV Urbani,[1],0.6
same,Binding of serum 2 to looped/cyclic peptides of protein M of SARS-CoV Urbani,[1],0.6
same,Binding of serum 6 to linear peptides of protein M of SARS-CoV Urbani,[1],0.4
same,Binding of serum 6 to looped/cyclic peptides of protein M of SARS-CoV Urbani,[1],0.6
same,Binding of serum 37 to linear peptides of protein M of SARS-CoV Urbani,[1],0.7
same,Binding of serum 37 to looped/cyclic peptides of protein M of SARS-CoV Urbani,[1],0.5
same,Binding of serum 62 to linear peptides of protein M of SARS-CoV Urbani,[1],0.8
same,Binding of serum 62 to looped/cyclic peptides of protein M of SARS-CoV Urbani,[1],0.7
same,Binding of serum London to linear peptides of protein M of SARS-CoV Urbani,[1],0.3
same,Binding of serum London to looped/cyclic peptides of protein M of SARS-CoV Urbani,[1],0.2
same,Binding of serum SARS-green to linear peptides of protein M of SARS-CoV Urbani,[1],0.2
same,Binding of serum SARS-green to looped/cyclic peptides of protein M of SARS-CoV Urbani,[1],0.3
same,Binding of serum SARS-yellow to linear peptides of protein M of SARS-CoV Urbani,[1],0.1
same,Binding of serum SARS-yellow to looped/cyclic peptides of protein M of SARS-CoV Urbani,[1],0.8
same,Binding of Control Serum Blood-Bank to Looped peptides of the protein M of SARS-CoV Urbani,[2],0.6
same,Binding of Control serum Blood-bank to linear peptides of the protein M of SARS-CoV Urbani,[2],0.7
same,Binding of Control serum LUMC to linear peptides of the protein M of SARS-CoV Urbani,[2],0.3
same,Binding of Control serum LUMC to looped peptides of the protein M of SARS-CoV Urbani,[2],0.6
same,Rabbit serum linear peptides,[3],0.3
same,Rabbit serum looped peptides,[3],0.3
RFLYIIKLVFLWLLW,Binding of serum 1a to linear peptides of protein M of SARS-CoV Urbani,[1],0.7
same,Binding of serum 1b to linear peptides of protein M of SARS-CoV Urbani,[1],0.7
same,Binding of serum 2 to linear peptides of protein M of SARS-CoV Urbani,[1],0.6
same,Binding of serum 6 to linear peptides of protein M of SARS-CoV Urbani,[1],0.8
same,Binding of serum 37 to linear peptides of protein M of SARS-CoV Urbani,[1],0.4
same,Binding of serum 62 to linear peptides of protein M of SARS-CoV Urbani,[1],0.4
same,Binding of serum London to linear peptides of protein M of SARS-CoV Urbani,[1],0.6
same,Binding of serum SARS-green to linear peptides of protein M of SARS-CoV Urbani,[1],0.6
same,Binding of serum SARS-yellow to linear peptides of protein M of SARS-CoV Urbani,[1],0.3
same,"Recognition of the peptide by sera of SARS-CoV infected individuals, and form (linear, looped/cyclic) in which it is recognized",[1],recognized in looped/cyclic form
same,Binding of Control Serum Blood-Bank to Looped peptides of the protein M of SARS-CoV Urbani,[2],0.7
same,Binding of Control serum Blood-bank to linear peptides of the protein M of SARS-CoV Urbani,[2],0.7
same,Binding of Control serum LUMC to linear peptides of the protein M of SARS-CoV Urbani,[2],0.8
same,Binding of Control serum LUMC to looped peptides of the protein M of SARS-CoV Urbani,[2],0.8
same,Rabbit serum linear peptides,[3],0.2
same,Rabbit serum looped peptides,[3],0.3
